Assay results reported in PubChem BioAssay (NCI).
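Protocol summary: plate cells (96-well), add compound at 5 concentrations, incubate 48 h, interpolate endpoints linearly. GI50 = concentration required for 50% inhibition of growth. TGI: total growth inhibition.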

Tests used:
Experiment in all cases: DTP human tumour cell line panel, 48 h
[1] = test system: UO-31 renal
[2] = test system: COLO 205 colon
[3] = test system: OVCAR-4 ovarian
[4] = test system: SF-295 CNS
[5] = test system: MDA-MB-231 breast
[6] = test system: HCT-116 colon
[7] = test system: A498 renal
[8] = test system: DU-145 prostate
[9] = test system: U251 CNS
[10] = test system: CCRF-CEM leukemia

| SMILES | TGI [1] [µM] | TGI [2] [µM] | TGI [3] [µM] | TGI [4] [µM] | TGI [5] [µM] | TGI [6] [µM] | TGI [7] [µM] | TGI [8] [µM] | TGI [9] [µM] | TGI [10] [µM] | GI50 [1] [µM] | GI50 [2] [µM] | GI50 [3] [µM] | GI50 [7] [µM] | GI50 [8] [µM] | GI50 [5] [µM] | GI50 [4] [µM] | GI50 [6] [µM] | GI50 [9] [µM] | GI50 [10] [µM] |
| --- | --- | --- | --- | --- | --- | --- | --- | --- | --- | --- | --- | --- | --- | --- | --- | --- | --- | --- | --- | --- |
| C[n+]1cccc(/C=C/c2ccc3cccc(O)c3n2)c1 | > 100 | > 100 | > 100 | > 100 | > 100 | > 100 | > 100 | > 100 | > 100 | > 100 | – | – | – | – | – | – | – | – | – | – |
| CC(C)CNc1nc(N)[nH]c(=O)c1NC=O | > 100 | > 100 | > 100 | > 100 | > 100 | > 100 | > 100 | > 100 | > 100 | > 100 | – | – | – | – | – | – | – | – | – | – |
| COc1ccc(CNc2nc(NCc3ccc(OC)cc3)nc(NC(C)C)n2)cc1 | > 100 | 33.9 | > 100 | > 100 | – | 12.4 | 47.1 | 66 | > 100 | – | – | – | – | – | – | – | – | – | – | – |
| NCS(=O)(=O)O | > 100 | > 100 | > 100 | > 100 | > 100 | > 100 | > 100 | > 100 | > 100 | > 100 | – | – | – | – | – | – | – | – | – | – |
| Cn1cnc([N+](=O)[O-])c1SCC(=O)O | > 100 | > 100 | > 100 | > 100 | > 100 | > 100 | > 100 | > 100 | > 100 | > 100 | – | – | – | – | – | – | – | – | – | – |
| CCOC(=O)c1c2c(c(O)c3ccccc3c(O)n(-c3ccc(C)cc3)c1C)C(=O)C=CC2=O | > 100 | 48.5 | 29.9 | 37 | 55.7 | 38.3 | – | 91 | 52.9 | 78.9 | – | – | – | – | – | – | – | – | – | – |
| COc1cnc2c(c1)C(=O)c1c-2n(CCCN2CCNCC2)c(=O)c2cc(Cl)ccc12 | 2.41 | 2.41 | 2.73 | – | – | – | 2.28 | 1.2 | – | – | 1.03 | 0.783 | 1.17 | 0.551 | 0.242 | – | – | – | – | – |
| N=C(N)c1ccc(-c2ccc(-c3ccc(Cl)cn3)s2)cc1 | 3.07 | – | – | – | 3.02 | – | 17.3 | 3.34 | – | – | 1.68 | – | – | 3.82 | 1.78 | 1.58 | – | – | – | – |
| CCOC(=O)C1=C(C)N(C)C(=S)NC1c1cccc(O)c1 (configuration not stated) | > 100 | > 100 | > 100 | > 100 | > 100 | > 100 | 84 | > 100 | > 100 | 72.1 | – | – | – | – | – | – | – | – | – | – |
| CC(C)(C)C1CCC2(CC1)CCN(CCCN1CCOCC1)CC2 | > 100 | 32.7 | > 100 | > 61.7 | > 100 | > 59.7 | > 57.4 | > 100 | > 53.3 | > 100 | – | – | – | – | – | – | – | – | – | – |
| O=C(c1cc(Br)ccc1O)c1cc(Br)ccc1O | 27.4 | 33.4 | 30.2 | 33.7 | 33.5 | 29.4 | 31.4 | 29.2 | 28.8 | 44.4 | – | – | – | – | – | – | – | – | – | – |
| COc1cc2ccc1-c1cc(ccc1O)CC1c3cc4c(cc3CCN1C)Oc1c(OC)cc3c(c1O4)C(C2)N(C)CC3 (configuration not stated) | 3.27 | – | 3.72 | 3.33 | – | 2.89 | 3.79 | – | 3.07 | 5.18 | – | – | – | – | – | – | – | – | – | – |
| CN(C)CCNC(=O)c1cccc2nc3c4ccccc4c4ccccc4c3nc12 | 22.9 | 19.3 | 3.24 | 10.1 | 3.32 | 3.21 | 15.6 | 3.2 | 4.56 | 3.03 | – | – | – | – | – | – | – | – | – | – |
| C[C@H]1CCC/C=C/[C@@H]2C[C@H](O)C[C@H]2[C@H](O)[C@@H](S(=O)CCN)CC(=O)O1 (some centres not stated) | 0.446 | 0.0436 | – | > 100 | 0.0613 | 0.169 | 0.126 | 0.552 | > 100 | – | 0.0269 | < 0.0156 | < 0.0273 | 0.0322 | 0.163 | 0.0234 | 0.117 | 0.0569 | 0.0538 | 0.0729 |
| Cc1c2ccnc(-c3ccccc3)c2cc2c1[nH]c1ccccc12 | 4.29 | 6.1 | 32.7 | 5.45 | – | 4.61 | 10.6 | – | 7.76 | 10.6 | – | – | – | – | – | – | – | – | – | – |
| COc1cc2c(cc1OC)C(Cl)C(c1ccc(Cl)cc1)=C2Cl (configuration not stated) | 32.6 | 32.2 | – | 30 | – | – | 46 | – | 26.6 | 30.6 | – | – | – | – | – | – | – | – | – | – |
| O=C(CC1(O)C(=O)Nc2ccc(Br)cc21)c1ccc(C(=O)NCC2CCC3(CC2)OOC2(CCCCC2)OO3)cc1 (configuration not stated) | – | 25.5 | 72.3 | 35 | 37.1 | 30 | 30.2 | 39.6 | 6.51 | – | – | 3.74 | 6.93 | 14.7 | 8.77 | 5.96 | 7.1 | 3.09 | 2.24 | – |
| Cc1cc(=O)[nH]c(NN2C(Cl)C(=O)C2c2cccc([N+](=O)[O-])c2)n1 (configuration not stated) | > 100 | 51.6 | 57 | – | – | 49.9 | – | – | 47.4 | 10.3 | – | – | – | – | – | – | – | – | – | – |
| Cc1ccc(C)c(/C(=N\N=C(N)N)C2CC2)c1 | > 100 | > 100 | > 100 | > 100 | > 100 | 82.7 | > 100 | > 100 | 36.2 | – | – | – | – | – | – | – | – | – | – | – |
| COc1ccc(-n2c3c(c4cc(O)ccc42)C(=O)c2ccccc2C3=O)cc1 | > 100 | > 100 | > 100 | 17.6 | 13.6 | 1.25 | 22.5 | > 100 | – | – | – | – | – | – | – | – | – | – | – | – |
| Oc1cc(O)cc(/C=C/c2ccc(O)c(O)c2)c1 | 39.3 | > 62.1 | > 100 | 60 | – | 20.9 | > 70 | – | 42.8 | 24.3 | – | – | – | – | – | – | – | – | – | – |
| CN(C)c1ccc(C2CC(=O)C(C#N)=C(c3ccccc3)NN2C)cc1 (configuration not stated) | – | – | > 100 | > 100 | – | > 100 | > 100 | – | > 100 | – | – | – | – | – | – | – | – | – | – | – |
| CC[C@H](Nc1nc(N)nc(N)c1Cl)c1nc2cccc(NCc3ccc(C(=O)NO)cc3)c2c(=O)n1-c1ccccc1 | – | 5.73 | – | – | 3.65 | – | 2.71 | 10.5 | 3.08 | > 100 | – | 2.24 | – | 1.34 | 2.91 | 1.55 | – | – | 1.51 | 1.35 |
| Cc1ncc(CO)c(CN)c1O | > 100 | > 100 | > 100 | > 100 | > 100 | > 100 | > 100 | > 100 | > 100 | > 100 | – | – | – | – | – | – | – | – | – | – |
| O=C1c2ccccc2C(=O)c2c(NCCNC(=O)C3CCCN3)ccc(NCCNC(=O)C3CCCN3)c21 (configuration not stated) | > 100 | > 100 | > 100 | > 100 | > 100 | 27.5 | – | > 100 | > 100 | > 100 | – | – | – | – | – | – | – | – | – | – |
